Data: the kinase profiling compilation of Christmann-Franck et al. (2016)

Tests used:
Experiment in all cases: radiometric filter-binding kinase assay, Kinase HotSpot
Settings in all cases: compound 0.5 µM; ATP 10 µM
PAK1 (human) = PAK1 (human) (UniProt Q13153)
PRKCE (human) = PRKCE (human) (UniProt Q02156)
CDC42BPB (human) = CDC42BPB (human) (UniProt Q9Y5S2)
CDK2 CCNA2 (human) = CDK2 CCNA2 (human) (UniProt P24941+P20248)
CAMK4 (human) = CAMK4 (human) (UniProt Q16566)
EPHA4 (human) = EPHA4 (human) (UniProt P54764)
MAPKAPK5 (human) = MAPKAPK5 (human) (UniProt Q8IW41)
NEK11 (human) = NEK11 (human) (UniProt Q8NG66)
MAPK9 (human) = MAPK9 (human) (UniProt P45984)
NTRK2 (human) = NTRK2 (human) (UniProt Q16620)
WNK3 (human) = WNK3 (human) (UniProt Q9BYP7)
MET (human) = MET (human) (UniProt P08581)
STK11 (human) = STK11 (human) (UniProt Q15831)
PHKG1 (human) = PHKG1 (human) (UniProt Q16816)
HIPK4 (human) = HIPK4 (human) (UniProt Q8NE63)
MELK (human) = MELK (human) (UniProt Q14680)
MAP3K11 (human) = MAP3K11 (human) (UniProt Q16584)
PAK3 (human) = PAK3 (human) (UniProt O75914)
MKNK2 (human) = MKNK2 (human) (UniProt Q9HBH9)
MYLK2 (human) = MYLK2 (human) (UniProt Q9H1R3)
ROCK2 (human) = ROCK2 (human) (UniProt O75116)
ALK (human) = ALK (human) (UniProt Q9UM73)
VRK1 (human) = VRK1 (human) (UniProt Q99986)
PAK6 (human) = PAK6 (human) (UniProt Q9NQU5)
TXK (human) = TXK (human) (UniProt P42681)
WEE1 (human) = WEE1 (human) (UniProt P30291)
MARK4 (human) = MARK4 (human) (UniProt Q96L34)
SGK2 (human) = SGK2 (human) (UniProt Q9HBY8)
RPS6KA5 KD2 (human) = RPS6KA5 KD2 (human) (UniProt O75582)
DAPK3 (human) = DAPK3 (human) (UniProt O43293)
HIPK2 (human) = HIPK2 (human) (UniProt Q9H2X6)
MAP3K3 (human) = MAP3K3 (human) (UniProt Q99759)
MARK1 (human) = MARK1 (human) (UniProt Q9P0L2)
PRKCZ (human) = PRKCZ (human) (UniProt Q05513)
IGF1R (human) = IGF1R (human) (UniProt P08069)
ADRBK2 (human) = ADRBK2 (human) (UniProt P35626)
CAMKK1 (human) = CAMKK1 (human) (UniProt Q8N5S9)
ZAP70 (human) = ZAP70 (human) (UniProt P43403)
PRKCB2 (human) = PRKCB2 (human) (UniProt P05771)
BRSK1 (human) = BRSK1 (human) (UniProt Q8TDC3)
STK24 (human) = STK24 (human) (UniProt Q9Y6E0)
RET (human) = RET (human) (UniProt P07949)

NTRK2 (human), sequence (Q16620 whole entry, looked up): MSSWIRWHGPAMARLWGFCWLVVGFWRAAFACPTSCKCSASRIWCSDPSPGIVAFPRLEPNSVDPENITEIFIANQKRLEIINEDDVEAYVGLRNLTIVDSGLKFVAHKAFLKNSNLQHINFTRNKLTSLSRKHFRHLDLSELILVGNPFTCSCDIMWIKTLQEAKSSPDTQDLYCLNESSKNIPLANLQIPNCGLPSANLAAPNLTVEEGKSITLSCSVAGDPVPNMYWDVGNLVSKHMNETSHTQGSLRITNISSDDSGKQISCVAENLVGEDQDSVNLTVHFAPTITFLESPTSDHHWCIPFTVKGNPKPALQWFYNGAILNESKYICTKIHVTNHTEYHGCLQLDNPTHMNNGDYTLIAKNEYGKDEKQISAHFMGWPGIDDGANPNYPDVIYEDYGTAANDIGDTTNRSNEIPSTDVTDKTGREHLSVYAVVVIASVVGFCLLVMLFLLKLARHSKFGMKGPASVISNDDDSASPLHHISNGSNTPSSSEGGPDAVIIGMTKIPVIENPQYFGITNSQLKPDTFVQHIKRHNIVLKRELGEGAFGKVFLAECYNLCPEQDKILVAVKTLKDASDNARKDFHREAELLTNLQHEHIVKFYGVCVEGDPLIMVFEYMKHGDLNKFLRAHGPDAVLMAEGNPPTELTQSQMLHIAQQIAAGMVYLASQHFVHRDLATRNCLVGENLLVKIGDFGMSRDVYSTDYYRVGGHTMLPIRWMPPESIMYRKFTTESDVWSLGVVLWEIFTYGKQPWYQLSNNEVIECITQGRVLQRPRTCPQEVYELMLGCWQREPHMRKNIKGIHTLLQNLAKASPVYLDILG
VRK1 (human), sequence (Q99986 whole entry, looked up): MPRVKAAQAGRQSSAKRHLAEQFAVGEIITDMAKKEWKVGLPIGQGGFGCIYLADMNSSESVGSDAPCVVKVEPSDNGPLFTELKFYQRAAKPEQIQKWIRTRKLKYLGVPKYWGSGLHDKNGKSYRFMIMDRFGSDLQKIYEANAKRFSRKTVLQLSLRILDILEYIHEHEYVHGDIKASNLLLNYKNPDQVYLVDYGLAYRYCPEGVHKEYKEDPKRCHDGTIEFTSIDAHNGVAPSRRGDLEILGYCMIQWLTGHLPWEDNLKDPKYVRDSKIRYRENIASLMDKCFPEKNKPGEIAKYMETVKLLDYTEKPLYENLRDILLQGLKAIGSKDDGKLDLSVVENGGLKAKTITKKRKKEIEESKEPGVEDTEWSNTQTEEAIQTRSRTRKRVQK
DAPK3 (human), sequence (O43293 whole entry, looked up): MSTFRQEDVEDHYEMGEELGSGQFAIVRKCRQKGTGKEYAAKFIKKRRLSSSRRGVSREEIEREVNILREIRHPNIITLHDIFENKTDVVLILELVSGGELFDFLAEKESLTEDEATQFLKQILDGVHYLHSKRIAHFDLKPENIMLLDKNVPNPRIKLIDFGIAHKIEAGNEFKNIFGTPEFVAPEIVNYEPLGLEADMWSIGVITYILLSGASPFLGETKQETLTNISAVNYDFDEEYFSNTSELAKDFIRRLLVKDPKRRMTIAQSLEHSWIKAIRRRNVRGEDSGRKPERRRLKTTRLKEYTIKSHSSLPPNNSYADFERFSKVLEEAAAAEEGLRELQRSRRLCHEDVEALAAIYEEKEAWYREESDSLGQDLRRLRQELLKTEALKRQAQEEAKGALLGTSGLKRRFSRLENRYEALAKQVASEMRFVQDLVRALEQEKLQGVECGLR
ADRBK2 (human), sequence (P35626 whole entry, looked up): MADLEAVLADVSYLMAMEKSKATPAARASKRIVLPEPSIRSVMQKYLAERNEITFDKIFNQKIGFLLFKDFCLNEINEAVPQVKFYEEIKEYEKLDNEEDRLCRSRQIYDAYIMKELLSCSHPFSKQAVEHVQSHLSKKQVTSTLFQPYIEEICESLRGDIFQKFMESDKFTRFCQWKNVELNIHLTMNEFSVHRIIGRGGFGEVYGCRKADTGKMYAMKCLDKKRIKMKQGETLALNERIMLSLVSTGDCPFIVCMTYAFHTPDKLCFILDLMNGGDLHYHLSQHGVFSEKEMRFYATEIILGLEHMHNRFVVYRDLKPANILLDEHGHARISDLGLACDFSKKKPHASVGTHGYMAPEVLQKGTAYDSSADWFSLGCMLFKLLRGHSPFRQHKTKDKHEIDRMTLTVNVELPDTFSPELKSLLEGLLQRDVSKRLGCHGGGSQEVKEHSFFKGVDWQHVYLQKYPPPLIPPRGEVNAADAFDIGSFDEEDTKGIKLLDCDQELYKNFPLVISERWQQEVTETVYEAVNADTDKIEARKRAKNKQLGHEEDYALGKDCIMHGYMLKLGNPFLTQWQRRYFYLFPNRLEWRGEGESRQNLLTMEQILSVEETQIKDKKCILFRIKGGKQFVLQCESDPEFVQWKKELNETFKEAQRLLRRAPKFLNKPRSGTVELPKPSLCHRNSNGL
MAPK9 (human), sequence (P45984 whole entry, looked up): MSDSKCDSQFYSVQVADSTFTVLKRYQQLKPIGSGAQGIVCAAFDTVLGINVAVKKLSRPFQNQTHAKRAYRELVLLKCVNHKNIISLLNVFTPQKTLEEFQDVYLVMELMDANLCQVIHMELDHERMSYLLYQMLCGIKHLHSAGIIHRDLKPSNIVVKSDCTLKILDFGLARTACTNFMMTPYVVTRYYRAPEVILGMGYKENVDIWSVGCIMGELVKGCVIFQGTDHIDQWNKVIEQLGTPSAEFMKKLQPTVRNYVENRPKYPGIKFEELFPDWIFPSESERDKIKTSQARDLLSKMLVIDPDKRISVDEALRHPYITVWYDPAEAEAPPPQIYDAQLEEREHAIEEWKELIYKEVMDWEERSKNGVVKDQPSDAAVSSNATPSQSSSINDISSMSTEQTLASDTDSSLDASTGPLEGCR
RPS6KA5 KD2 (human), sequence (O75582 whole entry, looked up): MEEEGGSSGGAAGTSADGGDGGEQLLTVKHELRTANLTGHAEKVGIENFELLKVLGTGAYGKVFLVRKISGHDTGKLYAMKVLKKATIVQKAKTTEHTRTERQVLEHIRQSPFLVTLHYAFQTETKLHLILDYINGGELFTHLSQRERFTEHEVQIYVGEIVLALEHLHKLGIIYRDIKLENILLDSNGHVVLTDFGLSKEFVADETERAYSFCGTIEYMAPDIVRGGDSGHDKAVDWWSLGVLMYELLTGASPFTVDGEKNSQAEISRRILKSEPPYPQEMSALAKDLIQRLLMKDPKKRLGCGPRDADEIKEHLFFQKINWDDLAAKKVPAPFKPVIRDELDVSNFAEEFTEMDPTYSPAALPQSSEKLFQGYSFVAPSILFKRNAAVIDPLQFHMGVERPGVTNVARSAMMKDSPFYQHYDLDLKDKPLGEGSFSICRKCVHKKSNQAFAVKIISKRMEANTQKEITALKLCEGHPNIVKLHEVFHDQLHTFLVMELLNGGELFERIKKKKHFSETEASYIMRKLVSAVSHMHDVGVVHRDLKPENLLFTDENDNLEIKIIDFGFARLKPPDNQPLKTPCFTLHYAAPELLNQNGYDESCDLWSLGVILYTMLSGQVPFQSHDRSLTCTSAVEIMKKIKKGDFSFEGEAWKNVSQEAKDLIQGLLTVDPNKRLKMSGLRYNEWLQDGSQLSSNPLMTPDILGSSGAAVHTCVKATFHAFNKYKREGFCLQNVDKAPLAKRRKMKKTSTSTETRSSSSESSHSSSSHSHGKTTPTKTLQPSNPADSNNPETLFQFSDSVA
IGF1R (human), sequence (P08069 whole entry, looked up): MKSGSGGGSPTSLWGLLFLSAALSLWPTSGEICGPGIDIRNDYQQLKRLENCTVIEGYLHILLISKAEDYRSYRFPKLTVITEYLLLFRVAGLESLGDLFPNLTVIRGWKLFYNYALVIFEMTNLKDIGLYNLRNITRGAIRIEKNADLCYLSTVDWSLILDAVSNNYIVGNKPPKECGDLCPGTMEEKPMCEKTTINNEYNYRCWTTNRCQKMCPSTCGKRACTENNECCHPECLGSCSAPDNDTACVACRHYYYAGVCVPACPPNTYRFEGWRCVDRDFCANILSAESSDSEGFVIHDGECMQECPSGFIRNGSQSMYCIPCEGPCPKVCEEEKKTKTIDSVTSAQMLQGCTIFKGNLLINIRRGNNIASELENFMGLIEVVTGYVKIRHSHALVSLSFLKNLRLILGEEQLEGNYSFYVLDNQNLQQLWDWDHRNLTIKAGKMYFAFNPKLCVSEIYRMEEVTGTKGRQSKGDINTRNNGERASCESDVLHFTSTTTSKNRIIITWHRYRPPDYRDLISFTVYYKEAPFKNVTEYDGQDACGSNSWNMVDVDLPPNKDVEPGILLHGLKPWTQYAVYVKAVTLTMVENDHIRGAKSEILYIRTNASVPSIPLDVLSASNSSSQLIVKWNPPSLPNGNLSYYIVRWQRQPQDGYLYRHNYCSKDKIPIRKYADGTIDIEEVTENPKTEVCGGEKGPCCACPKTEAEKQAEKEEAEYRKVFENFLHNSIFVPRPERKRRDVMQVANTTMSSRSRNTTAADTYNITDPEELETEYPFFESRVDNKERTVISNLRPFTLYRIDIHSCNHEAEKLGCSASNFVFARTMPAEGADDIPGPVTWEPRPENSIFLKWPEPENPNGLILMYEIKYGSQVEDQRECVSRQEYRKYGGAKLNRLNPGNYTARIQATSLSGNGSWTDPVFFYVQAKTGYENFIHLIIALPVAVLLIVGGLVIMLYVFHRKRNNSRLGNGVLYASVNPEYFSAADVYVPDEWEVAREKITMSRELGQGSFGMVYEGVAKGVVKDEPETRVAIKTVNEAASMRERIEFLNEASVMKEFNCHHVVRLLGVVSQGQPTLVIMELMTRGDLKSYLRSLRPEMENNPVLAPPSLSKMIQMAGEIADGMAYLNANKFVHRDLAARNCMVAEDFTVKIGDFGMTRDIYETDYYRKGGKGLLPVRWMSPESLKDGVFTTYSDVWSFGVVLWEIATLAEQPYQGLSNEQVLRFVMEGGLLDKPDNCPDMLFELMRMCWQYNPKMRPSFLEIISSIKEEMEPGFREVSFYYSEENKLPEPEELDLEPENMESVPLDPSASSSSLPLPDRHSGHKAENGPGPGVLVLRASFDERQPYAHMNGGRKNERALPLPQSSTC

Nc1n[nH]c2nnc(-c3c(-c4ccccc4)nn4ccccc34)cc12
residual activity (PAK1 (human)): 91.9% | residual activity (PRKCE (human)): 72.7% | residual activity (CDC42BPB (human)): 93.4% | residual activity (CDK2 CCNA2 (human)): 92.9% | residual activity (CAMK4 (human)): 94.2% | residual activity (EPHA4 (human)): 85.9% | residual activity (MAPKAPK5 (human)): 97.7% | residual activity (NEK11 (human)): 95.1% | residual activity (MAPK9 (human)): 48.4% | residual activity (NTRK2 (human)): 89.7% | residual activity (WNK3 (human)): 101% | residual activity (MET (human)): 95% | residual activity (STK11 (human)): 91.8% | residual activity (PHKG1 (human)): 101% | residual activity (HIPK4 (human)): 105% | residual activity (MELK (human)): 102% | residual activity (MAP3K11 (human)): 94.3% | residual activity (PAK3 (human)): 100% | residual activity (MKNK2 (human)): 98.3% | residual activity (MYLK2 (human)): 101% | residual activity (ROCK2 (human)): 89.6% | residual activity (ALK (human)): 108% | residual activity (VRK1 (human)): 92.2% | residual activity (PAK6 (human)): 96.4% | residual activity (TXK (human)): 88.8% | residual activity (WEE1 (human)): 92.4% | residual activity (MARK4 (human)): 105% | residual activity (SGK2 (human)): 98.8% | residual activity (RPS6KA5 KD2 (human)): 101% | residual activity (DAPK3 (human)): 102% | residual activity (HIPK2 (human)): 104% | residual activity (MAP3K3 (human)): 110% | residual activity (MARK1 (human)): 98% | residual activity (PRKCZ (human)): 83.9% | residual activity (IGF1R (human)): 102% | residual activity (ADRBK2 (human)): 101% | residual activity (CAMKK1 (human)): 125% | residual activity (ZAP70 (human)): 90.1% | residual activity (PRKCB2 (human)): 99.7% | residual activity (BRSK1 (human)): 98.6% | residual activity (STK24 (human)): 74.6% | residual activity (RET (human)): 93.7%

Cc1cc2ncc(-c3ccccc3)nc2cc1C
residual activity (PAK1 (human)): 97.8% | residual activity (PRKCE (human)): 99.6% | residual activity (CDC42BPB (human)): 101% | residual activity (CDK2 CCNA2 (human)): 99.3% | residual activity (CAMK4 (human)): 98.3% | residual activity (EPHA4 (human)): 95.4% | residual activity (MAPKAPK5 (human)): 95.1% | residual activity (NEK11 (human)): 104% | residual activity (MAPK9 (human)): 104% | residual activity (NTRK2 (human)): 103% | residual activity (WNK3 (human)): 103% | residual activity (MET (human)): 95.1% | residual activity (STK11 (human)): 94% | residual activity (PHKG1 (human)): 97.4% | residual activity (HIPK4 (human)): 120% | residual activity (MELK (human)): 91.1% | residual activity (MAP3K11 (human)): 97.3% | residual activity (PAK3 (human)): 96.2% | residual activity (MKNK2 (human)): 94.8% | residual activity (MYLK2 (human)): 99.7% | residual activity (ROCK2 (human)): 88.1% | residual activity (ALK (human)): 98% | residual activity (VRK1 (human)): 101% | residual activity (PAK6 (human)): 97.4% | residual activity (TXK (human)): 99.5% | residual activity (WEE1 (human)): 105% | residual activity (MARK4 (human)): 105% | residual activity (SGK2 (human)): 101% | residual activity (RPS6KA5 KD2 (human)): 96.4% | residual activity (DAPK3 (human)): 90.3% | residual activity (HIPK2 (human)): 97% | residual activity (MAP3K3 (human)): 103% | residual activity (MARK1 (human)): 106% | residual activity (PRKCZ (human)): 88.6% | residual activity (IGF1R (human)): 86.8% | residual activity (ADRBK2 (human)): 87.4% | residual activity (CAMKK1 (human)): 98% | residual activity (ZAP70 (human)): 96.7% | residual activity (PRKCB2 (human)): 124% | residual activity (BRSK1 (human)): 95.1% | residual activity (STK24 (human)): 94.5% | residual activity (RET (human)): 88%

COc1cc2nccc(Oc3ccc(NC(=S)NC(=O)c4ccccc4C)cc3)c2cc1OC
residual activity (PAK1 (human)): 101% | residual activity (PRKCE (human)): 99.7% | residual activity (CDC42BPB (human)): 90.5% | residual activity (CDK2 CCNA2 (human)): 94.2% | residual activity (CAMK4 (human)): 103% | residual activity (EPHA4 (human)): 81.4% | residual activity (MAPKAPK5 (human)): 99% | residual activity (NEK11 (human)): 96.7% | residual activity (MAPK9 (human)): 82.7% | residual activity (NTRK2 (human)): 102% | residual activity (WNK3 (human)): 101% | residual activity (MET (human)): 60.4% | residual activity (STK11 (human)): 106% | residual activity (PHKG1 (human)): 89.2% | residual activity (HIPK4 (human)): 86% | residual activity (MELK (human)): 98.5% | residual activity (MAP3K11 (human)): 95.5% | residual activity (PAK3 (human)): 99.7% | residual activity (MKNK2 (human)): 94.3% | residual activity (MYLK2 (human)): 26.8% | residual activity (ROCK2 (human)): 92.5% | residual activity (ALK (human)): 80.8% | residual activity (VRK1 (human)): 96.3% | residual activity (PAK6 (human)): 95.8% | residual activity (TXK (human)): 66.9% | residual activity (WEE1 (human)): 89.6% | residual activity (MARK4 (human)): 73.3% | residual activity (SGK2 (human)): 97.3% | residual activity (RPS6KA5 KD2 (human)): 95.3% | residual activity (DAPK3 (human)): 75.4% | residual activity (HIPK2 (human)): 99.2% | residual activity (MAP3K3 (human)): 105% | residual activity (MARK1 (human)): 91.4% | residual activity (PRKCZ (human)): 96.9% | residual activity (IGF1R (human)): 92.1% | residual activity (ADRBK2 (human)): 94.9% | residual activity (CAMKK1 (human)): 91.2% | residual activity (ZAP70 (human)): 97% | residual activity (PRKCB2 (human)): 102% | residual activity (BRSK1 (human)): 87% | residual activity (STK24 (human)): 101% | residual activity (RET (human)): 86.7%

Oc1ccc(-c2nc(-c3ccc(F)cc3)c(-c3ccncc3)[nH]2)cc1
residual activity (PAK1 (human)): 97.3% | residual activity (PRKCE (human)): 96% | residual activity (CDC42BPB (human)): 103% | residual activity (CDK2 CCNA2 (human)): 101% | residual activity (CAMK4 (human)): 102% | residual activity (EPHA4 (human)): 96.2% | residual activity (MAPKAPK5 (human)): 102% | residual activity (NEK11 (human)): 80.6% | residual activity (MAPK9 (human)): 93.4% | residual activity (NTRK2 (human)): 102% | residual activity (WNK3 (human)): 101% | residual activity (MET (human)): 94.4% | residual activity (STK11 (human)): 93.1% | residual activity (PHKG1 (human)): 94.2% | residual activity (HIPK4 (human)): 89.7% | residual activity (MELK (human)): 102% | residual activity (MAP3K11 (human)): 25.2% | residual activity (PAK3 (human)): 98.7% | residual activity (MKNK2 (human)): 89.4% | residual activity (MYLK2 (human)): 93.5% | residual activity (ROCK2 (human)): 93.6% | residual activity (ALK (human)): 104% | residual activity (VRK1 (human)): 98.7% | residual activity (PAK6 (human)): 104% | residual activity (TXK (human)): 78.5% | residual activity (WEE1 (human)): 94.9% | residual activity (MARK4 (human)): 100% | residual activity (SGK2 (human)): 99.6% | residual activity (RPS6KA5 KD2 (human)): 107% | residual activity (DAPK3 (human)): 100% | residual activity (HIPK2 (human)): 102% | residual activity (MAP3K3 (human)): 103% | residual activity (MARK1 (human)): 101% | residual activity (PRKCZ (human)): 109% | residual activity (IGF1R (human)): 108% | residual activity (ADRBK2 (human)): 99.3% | residual activity (CAMKK1 (human)): 123% | residual activity (ZAP70 (human)): 100% | residual activity (PRKCB2 (human)): 75% | residual activity (BRSK1 (human)): 101% | residual activity (STK24 (human)): 95.2% | residual activity (RET (human)): 89.3%
